From patent US20200377958A1, “BIOMARKERS AND METHODS FOR TREATMENT WITH NAE INHIBITORS” (Millennium Pharmaceuticals, Inc., priority 2017, published 2020)
Like-named read-outs stand apart in the source and are kept apart here.

Key:
[1] = tested on: older unfit patients with increased marrow blasts (>30%); conditions: cited from earlier work
[2] = tested on: patients with AML; conditions: patients with AML on the Austrian AZA registry; cited from earlier work
[3] = Phase 1b clinical study (NCT01814826): plasma PK of PEV in combination with AZA; type: in vivo, human; conditions: for Cmax / half-life / Tmax: human; for Cmax / half-life / Tmax / AUC24 / AUC48: plasma; for Cmax / AUC24 / AUC48: geometric mean; for half-life: mean; for Tmax: median
Protocol: Serial blood samples for the determination of PEV concentrations were obtained during the first cycle of treatment, at pre-specified time points before and up to 48 hours after the start of the infusion on days 1 and 5.

[4] = tested on: patients with relapsed/refractory AML and MDS; conditions: single-agent PEV, cited from earlier work
[5] = tested on: AML cells; conditions: cited from earlier work; for combination effect on viability: Combination Index and Blending Synergy Analysis
[6] = single-agent PEV, cited from earlier work
[7] = AZA-AML-001, randomized AZA or CCR
[8] = intravenous, dose escalation, 20 mg/m^2 cohort (N = 6), cycle 1, day 1
[9] = intravenous, dose escalation, 20 mg/m^2 cohort (N = 6), cycle 1, day 5
[10] = intravenous, dose escalation, 30 mg/m^2 cohort (N = 3), cycle 1, day 1
[11] = iv, MTD expansion, IV AZA cohort (N = 26), cycle 1, day 1
[12] = iv, MTD expansion, IV AZA cohort (N = 26), cycle 1, day 5
[13] = sc, MTD expansion, SC AZA cohort (N = 28), cycle 1, day 1
[14] = sc, MTD expansion, SC AZA cohort (N = 28), cycle 1, day 5
[15] = dose escalation, 20 mg/m^2 cohort (N = 6), cycle 1, day 1
[16] = dose escalation, 20 mg/m^2 cohort (N = 6), cycle 1, day 5
[17] = dose escalation, 30 mg/m^2 cohort (N = 3), cycle 1, day 1

## Nc1ncn([C@@H]2O[C@H](CO)[C@@H](O)[C@H]2O)c(=O)n1 [AZA, azacitidine]
[1]; [7]
  1-year survival: 46.5%
  median OS: 10.4 months
  response rates: 27.8%
[1]; patients randomized to AZA alone, large randomized French study (ref 6)
  composite CR/PR rate: 29%
[2]
  median OS: ~10 months

## NS(=O)(=O)OC[C@@H]1C[C@@H](n2ccc3c(N[C@H]4CCc5ccccc54)ncnc32)C[C@@H]1O [PEV, ((1S,2S,4R)-4-{4-[(1S)-2,3-dihydro-1H-inden-1-ylamino]-7H-pyrrolo[2,3-d]pyrimidin-7-yl}-2-hydroxycyclopentyl)methyl sulfamate]
[3]; day 5 versus day 1, five days of continuous dosing with AZA
  observed accumulation ratio Rac: ~1
[3]; [8]
  Cmax: 158 ng/mL
  half-life: 7.8 h
  Tmax: 1.06 h
[3]; [9]
  Cmax: 165 ng/mL
  half-life: 7.98 h
  Tmax: 0.99 h
[3]; [10]
  Cmax: 299 ng/mL
  half-life: 7.39 h
  Tmax: 0.98 h
[3]; [11]
  Cmax: 155 ng/mL
  half-life: 7.45 h
  Tmax: 1.01 h
[3]; [12]
  Cmax: 164 ng/mL
  half-life: 8.07 h
  Tmax: 1 h
[3]; [13]
  Cmax: 152 ng/mL
  half-life: 7.3 h
  Tmax: 1 h
[3]; [14]
  Cmax: 148 ng/mL
  half-life: 7.89 h
  Tmax: 0.98 h
[3]; MTD expansion, IV AZA cohort (N = 26), cycle 1, day 1
  AUC24: 861 ng·h/mL
[3]; MTD expansion, IV AZA cohort (N = 26), cycle 1, day 5
  AUC24: 921 ng·h/mL
[3]; MTD expansion, IV AZA cohort, N = 12, cycle 1, day 1
  AUC48: 976 ng·h/mL
[3]; MTD expansion, IV AZA cohort, N = 13, cycle 1, day 5
  AUC48: 1100 ng·h/mL
[3]; MTD expansion, SC AZA cohort (N = 28), cycle 1, day 1
  AUC24: 890 ng·h/mL
[3]; MTD expansion, SC AZA cohort (N = 28), cycle 1, day 5
  AUC24: 926 ng·h/mL
[3]; MTD expansion, SC AZA cohort, N = 11, cycle 1, day 1
  AUC48: 1000 ng·h/mL
[3]; MTD expansion, SC AZA cohort, N = 18, cycle 1, day 5
  AUC48: 1100 ng·h/mL
[3]; [15]
  AUC24: 990 ng·h/mL
  AUC48: 1110 ng·h/mL
[3]; [16]
  AUC24: 986 ng·h/mL
  AUC48: 1090 ng·h/mL
[3]; [17]
  AUC24: 1640 ng·h/mL
  AUC48: 1770 ng·h/mL
[3]; systemic exposure
  PEV PK in the presence of AZA compared with historical single-agent data: not altered
PEV 20 mg/m^2 (n=6) with AZA, dose escalation
  DLTs at starting dose: absence of DLTs
PEV 20 mg/m^2, CRM model
  final posterior estimate of probability of toxicity: 24%
PEV 20 mg/m^2 with AZA (n=55), grade ≥3 transaminase elevation
  DLTs in the MTD expansion cohort: two additional patients experienced DLTs
PEV 30 mg/m^2 dose level (n=3) with AZA, grade 2 bilirubin elevation, grade 4 AST elevation
  patients who experienced a DLT: two of the three
Combined with AZA in standard doses, IV days 1, 3, 5 of 28-day cycles
  MTD for PEV: 20 mg/m^2
[4]; schedule A, patients treated at or below the MTD (4/23)
  Overall response rate (ORR): 17%
[4]; schedule B, patients treated at or below the MTD (2/19)
  Overall response rate (ORR): 10%
[5]; PEV combined with AZA compared with either agent alone, immunoblotting and flow cytometry
  DNA damage and cell death: significantly increased DNA damage and cell death
[5]; PEV with AZA
  combination effect on viability: synergistically lethal
[5]; PEV with decitabine
  combination effect on viability: synergistically lethal
[6]; schedule A: 1-hour IV infusion days 1, 3, 5 every 21 days
  maximum tolerated dose (MTD): 59 mg/m^2
[6]; schedule A
  dose-limiting toxicity: elevation of alanine aminotransferase (ALT)/aspartate aminotransferase (AST)
[6]; schedule B: days 1, 4, 8, 11 every 21 days
  maximum tolerated dose (MTD): 83 mg/m^2
[6]; schedule B
  dose-limiting toxicity: Multi-organ failure (MOF)
